PubChem BioAssay (NCI)
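1) Cells in 96-well plates. 2) Compound, 48 h, 5 concentrations. 3) Linear interpolation between surrounding doses. 4) Unreached endpoint = highest concentration. GI50 is the concentration that inhibits growth by half. TGI denotes the concentration required for complete inhibition of growth.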

What was measured:
Experiment in all cases: NCI anticancer screen, dose series, 48 h
[1] = tested on: UACC-62 melanoma
[2] = tested on: SF-295 CNS
[3] = tested on: HCT-15 colon
[4] = tested on: SNB-75 CNS
[5] = tested on: HL-60(TB) leukemia
[6] = tested on: RXF 393 renal
[7] = tested on: NCI-H226 lung
[8] = tested on: A549 NSCLC
[9] = tested on: HT29 colon
[10] = tested on: SW-620 colon

Compound | GI50 [1] [µM] | TGI [1] [µM] | GI50 [2] [µM] | TGI [2] [µM] | GI50 [3] [µM] | TGI [3] [µM] | GI50 [4] [µM] | TGI [4] [µM] | GI50 [5] [µM] | TGI [5] [µM] | GI50 [6] [µM] | TGI [6] [µM] | GI50 [7] [µM] | TGI [7] [µM] | GI50 [8] [µM] | TGI [8] [µM] | GI50 [9] [µM] | TGI [9] [µM] | GI50 [10] [µM] | TGI [10] [µM]
NCCN.NCCN.O=C[O-].O=C[O-].[Co+3].[O-][Cl+3]([O-])([O-])[O-] | > 100 | > 100 | > 100 | > 100 | > 100 | > 100 | > 100 | > 100 | > 100 | > 100 | > 100 | > 100 | > 100 | > 100 | > 100 | > 100 | > 100 | > 100 | > 100 | > 100
Fc1ccc(-c2ncn(C3CCNCC3)c2-c2ccnc(Oc3ccc(F)c(F)c3)n2)cc1 | 4.99 | 10.3 | 7.15 | > 17.2 | 5.64 | 15.6 | 8.64 | > 25 | 10.6 | 24.6 | 3.15 | 6.48 | 9.34 | > 25 | 9.39 | > 19.4 | 4.36 | 8.12 | 4.36 | 8.98
O=C(O)c1ccc(S(=O)(=O)Nc2ccc3oc4c(c3c2)C(=O)CCC4)cc1 | > 100 | > 100 | > 100 | > 100 | > 100 | > 100 | > 100 | > 100 | > 100 | > 100 | > 100 | > 100 | > 100 | > 100 | > 100 | > 100 | > 100 | > 100 | > 100 | > 100
O=S(=O)(SCc1ccccc1)C(c1ccccc1)c1ccccc1 |  | 85.7 |  | > 100 |  | > 100 |  | > 100 |  | 77 |  | 68 |  | 54.5 |  | > 100 |  | 71.4 |  | 26.9
COc1cc2c3c(n(CCCNCCCNCCCNCCCN)c(=O)c2cc1OC)-c1cc2c(cc1C3=O)OCO2 | 1.68 | 6.19 | 1.38 | 3.97 | 6.77 | 29 | 2.98 | 13.6 | 1.36 | 3.3 | 1.7 | 4.46 | 2.92 | 7.26 | 2.2 | 11.7 | 2.28 | 16.4 | 2.18 | 13.9
Cc1nc(-c2ccccc2)cc2c1c(=O)oc1ccccc12 |  | > 100 |  | > 100 |  | > 100 |  | > 100 |  | > 100 |  | > 100 |  | > 100 |  | > 100 |  | > 100 |  | > 100
CC(C)C1CC2C(=O)N(c3ccccc3)C(=O)C2c2[nH]c3ccccc3c21 (stereo not given) |  | > 100 |  | 65.5 |  | > 100 |  | 23.5 |  | 93.9 |  | 57.4 |  | 36.8 |  | > 100 |  | > 100 |  | > 100
OC(COc1ccc(F)cc1)Cn1cnc2c(Cl)ncnc21 (stereo not given) | 79 | > 100 | > 100 | > 100 | 32.4 | > 100 | > 100 | > 100 | 36.3 | > 100 | 1.78 | 44.4 | > 100 | > 100 | > 100 | > 100 | > 100 | > 100 | 72.9 | > 100
CN1C(=O)[C@@H](NC(=O)[C@H](CCC(F)(F)F)[C@H](CCC(F)(F)F)C(N)=O)N=C(c2ccccc2)c2ccccc21 | 35.7 | > 100 | 58.4 | > 100 | 89.5 | > 100 | 32.6 | > 100 | 62.6 | > 100 | 24.6 | > 100 | > 100 | > 100 | 66.7 | > 100 | > 100 | > 100 | > 100 | > 100
CN(/N=C/c1cccc2cccnc12)c1ccc([N+](=O)[O-])cc1 |  | > 100 |  | > 100 |  | > 100 |  | > 100 |  | > 100 |  | > 100 |  | > 100 |  | > 100 |  | > 100 |  | > 100
O=C(Cc1nc2ccccc2s1)C(=O)Nc1cccc(Cl)c1 |  | > 100 |  | > 100 |  | > 100 |  | > 100 |  | > 100 |  | > 100 |  | > 100 |  | > 100 |  | > 100 |  | > 100
CN(CC#N)C1CCCC[C@H]1O (stereo not given in full) |  | > 100 |  | > 100 |  | > 100 |  | > 100 |  | > 100 |  | > 100 |  | > 100 |  | > 100 |  | > 100 |  | > 100
O=C(Nc1ccccc1O)c1ccc(CNc2ccnc(C(F)(F)F)c2)cc1 | 1.3 | 17.6 | 3.16 | 17.1 | 11.8 | > 100 | 7.26 | 48.4 | 1.85 | 8.03 | 17.3 | 43.3 | 6.56 | 33.8 | 12 | > 100 | 6.42 | > 100 | 5.75 | 23
